According to PMC7934687 (Vaccine, 2021):
Where two headings read alike, the source gives them in different places.

Key:
Type in all cases: binding
[1] = target: HLA-DRB1*15:01 (Homo sapiens, UniProt P01903+P01911); details: reference peptide, short 15 amino acid form
[2] = target: HLA-DRB1*01:01 (Homo sapiens, UniProt P01903+P01911, A100R/D57E/F55L/F60I/F76Y/I96L/L162R/M171V/P40L/Q125E/R42F/V115G/Y59C); details: reference peptide, short 15 amino acid form
[3] = target: HLA-A*02:01 (Homo sapiens, UniProt P04439, D140Y/D185E/D98H/E176V/E277Q/G131W/G231S/I119V/I121R/I166T/I218V/L300P/L318F/N151K/N90K/P208A/P217A/Q86G/Q94H/R138H/R169H/T345S)

Sequence: PVSKMRMATPLLMQA [CLIP]
- interaction with recombinant HLA-DRB1*15:01 [1]: interacts strongly
- interaction with recombinant HLA-DRB1*01:01 [2]: interacts strongly

Sequence: ISDEFSSNV
- Practical Exchange rate ([3]; […], exiting peptide removed): 93.5%

Sequence: YLYALVYFL
- Practical Exchange rate ([3]; […], exiting peptide removed): 85%

Sequence: SVLLFLAFV
- Practical Exchange rate [3]: 57.5%
